In brackets after ≈: the same amount, converted by molar mass.
Tests used:
Type in all cases: physicochemical
[1] = Aqueous solubility in different cyclodextrin solutions (excess compound, shaken 24 hours, HPLC); details: aqueous cyclodextrin solution, thermodynamic from solid, room temperature, read-out: Solubility in CD's solution (concentration of compound)
Description: (§1) In order to test the effect of various CDs on the aqueous solubility of compound IVE, 1 mL of each of the following aqueous solutions as described in Table 2 was prepared. […] Excess IVE was present in all samples at all times to obtain solubility. After 24-hours, the samples were centrifuged. […] The size of the compound may allow it to form an inclusion complex, resulting in a higher aqueous solubility.
as §1, with “compound IVP,” for “compound IVE,”, “Table 3” for “Table 2”, “Excess IVP” for “Excess IVE”, “all times.” for “all times to obtain solubility.”
as §1, with “compound IVO,” for “compound IVE,”, “Table 4” for “Table 2”, “Excess IVO” for “Excess IVE”, “all times.” for “all times to obtain solubility.”, “inclusion body” for “inclusion”
as §1, with “compound IVQ,” for “compound IVE,”, “Table 5” for “Table 2”, “Excess IVQ” for “Excess IVE”, “all times.” for “all times to obtain solubility.”, “inclusion body” for “inclusion”

[2] = Comparable solubility test for IVO ASD-01 in DI water; details: 1.5 ml DI water
Description: The samples were centrifuged at 3 and 24 hours.

[3] = Solubility of compound IVO in solutions containing L-Arginine; details: thermodynamic from solid
Description: After 24-hours, the samples were centrifuged. […] One possibility is that L-Arginine may help promote the formation of inclusion complex between IVO and MBCD.

[4] = aqueous with cosolvent or surfactant or cyclodextrin, ACD 40 mg/ml
[5] = aqueous with cosolvent or surfactant or cyclodextrin, HPBCD 100 mg/ml
[6] = aqueous with cosolvent or surfactant or cyclodextrin, HPGCD 100 mg/ml
[7] = aqueous with cosolvent or surfactant or cyclodextrin, MBCD 100 mg/ml
[8] = aqueous with cosolvent or surfactant or cyclodextrin, SBEBCD 100 mg/ml

COc1cccc(COc2ccc(Sc3ccoc3C3NC(=O)NC3=O)cc2)c1 (centres unmarked) [IVE, 5-{3-[4-(3-Methoxybenzyloxy)phenylthio]fur-2-yl}imidazolidine-2,4-dione] gave a solubility at 24 h [1, 4] of 53 µg/mL (≈ 129 µM), a solubility at 24 h [1, 5] of 744 µg/mL (≈ 1810 µM) and a solubility at 24 h [1, 6] of 59 µg/mL (≈ 144 µM). The solubility at 24 h [1, 7] was 3250 µg/mL (≈ 7920 µM), the solubility at 24 h [1, 8] was 815 µg/mL (≈ 1990 µM) and the solubility at 24 h ([1]; water, ACD 0 mg/ml) was 23 µg/mL (≈ 56 µM). The solubility at 24 h ([1]; water, HPBCD 0 mg/ml) was 23 µg/mL (≈ 56 µM), the solubility at 24 h ([1]; water, HPGCD 0 mg/ml) was 23 µg/mL (≈ 56 µM) and the solubility at 24 h ([1]; water, MBCD 0 mg/ml) was 23 µg/mL (≈ 56 µM). For the same molecule, the solubility at 24 h ([1]; water, SBEBCD 0 mg/ml) was 23 µg/mL (≈ 56 µM).

In the case of Cc1cccc(COc2ccc(Sc3ccoc3C3NC(=O)NC3=O)cc2)c1 (centres unmarked) [IVO, 5-{3-[4-(3-Methyl-benzyloxy)phenylthio]fur-2-yl}imidazolidine-2,4-dione], the “pH at 24 hrs equilibrium” value ([2]; 24 hrs) is reported as 8.09, the solubility at 24 h ([2]; pH 8.09, thermodynamic from solid, room temperature, 24 hrs) is reported as 11 µg/mL (≈ 27.9 µM) and the solubility at 3 h ([2]; thermodynamic from solid, room temperature, 3 hrs) is reported as 2 µg/mL (≈ 5.07 µM). For the same molecule, the solubility at 24 h ([1]; aqueous with cosolvent or surfactant or cyclodextrin, ACD 5 mg/ml) was 37 µg/mL (≈ 93.8 µM), the solubility at 24 h ([1]; aqueous with cosolvent or surfactant or cyclodextrin, ACD 10 mg/ml) was 30 µg/mL (≈ 76.1 µM) and the solubility at 24 h ([1]; aqueous with cosolvent or surfactant or cyclodextrin, ACD 15 mg/ml) was 26 µg/mL (≈ 65.9 µM). It also gave a solubility at 24 h ([1]; aqueous with cosolvent or surfactant or cyclodextrin, ACD 20 mg/ml) of 13 µg/mL (≈ 33 µM), a solubility at 24 h ([1]; aqueous with cosolvent or surfactant or cyclodextrin, ACD 30 mg/ml) of 10 µg/mL (≈ 25.4 µM) and a solubility at 24 h [1, 4] of 17 µg/mL (≈ 43.1 µM). For the same molecule, the solubility at 24 h ([1]; aqueous with cosolvent or surfactant or cyclodextrin, HPBCD 25 mg/ml) was 37 µg/mL (≈ 93.8 µM), the solubility at 24 h ([1]; aqueous with cosolvent or surfactant or cyclodextrin, HPBCD 50 mg/ml) was 83 µg/mL (≈ 210 µM) and the solubility at 24 h ([1]; aqueous with cosolvent or surfactant or cyclodextrin, HPBCD 75 mg/ml) was 108 µg/mL (≈ 274 µM). For the same molecule, the solubility at 24 h [1, 5] was 184 µg/mL (≈ 466 µM), the solubility at 24 h ([1]; aqueous with cosolvent or surfactant or cyclodextrin, HPBCD 150 mg/ml) was 312 µg/mL (≈ 791 µM) and the solubility at 24 h ([1]; aqueous with cosolvent or surfactant or cyclodextrin, HPBCD 200 mg/ml) was 467 µg/mL (≈ 1180 µM). The solubility at 24 h ([1]; aqueous with cosolvent or surfactant or cyclodextrin, HPGCD 25 mg/ml) was 9 µg/mL (≈ 22.8 µM), the solubility at 24 h ([1]; aqueous with cosolvent or surfactant or cyclodextrin, HPGCD 50 mg/ml) was 16 µg/mL (≈ 40.6 µM) and the solubility at 24 h ([1]; aqueous with cosolvent or surfactant or cyclodextrin, HPGCD 75 mg/ml) was 6 µg/mL (≈ 15.2 µM). For the same molecule, the solubility at 24 h [1, 6] was 2 µg/mL (≈ 5.07 µM), the solubility at 24 h ([1]; aqueous with cosolvent or surfactant or cyclodextrin, HPGCD 150 mg/ml) was 4 µg/mL (≈ 10.1 µM) and the solubility at 24 h ([1]; aqueous with cosolvent or surfactant or cyclodextrin, HPGCD 200 mg/ml) was 3 µg/mL (≈ 7.61 µM). The solubility at 24 h ([1]; aqueous with cosolvent or surfactant or cyclodextrin, MBCD 25 mg/ml) was 244 µg/mL (≈ 619 µM), the solubility at 24 h ([1]; aqueous with cosolvent or surfactant or cyclodextrin, MBCD 50 mg/ml) was 477 µg/mL (≈ 1210 µM) and the solubility at 24 h ([1]; aqueous with cosolvent or surfactant or cyclodextrin, MBCD 75 mg/ml) was 673 µg/mL (≈ 1710 µM). For the same molecule, the solubility at 24 h [1, 7] was 1070 µg/mL (≈ 2700 µM), the solubility at 24 h ([1]; aqueous with cosolvent or surfactant or cyclodextrin, MBCD 150 mg/ml) was 1700 µg/mL (≈ 4300 µM) and the solubility at 24 h ([1]; aqueous with cosolvent or surfactant or cyclodextrin, MBCD 200 mg/ml) was 1780 µg/mL (≈ 4520 µM). It also gave a solubility at 24 h ([1]; aqueous with cosolvent or surfactant or cyclodextrin, SBEBCD 25 mg/ml) of 94 µg/mL (≈ 238 µM), a solubility at 24 h ([1]; aqueous with cosolvent or surfactant or cyclodextrin, SBEBCD 50 mg/ml) of 116 µg/mL (≈ 294 µM) and a solubility at 24 h ([1]; aqueous with cosolvent or surfactant or cyclodextrin, SBEBCD 75 mg/ml) of 156 µg/mL (≈ 395 µM). It also gave a solubility at 24 h [1, 8] of 174 µg/mL (≈ 441 µM), a solubility at 24 h ([1]; aqueous with cosolvent or surfactant or cyclodextrin, SBEBCD 150 mg/ml) of 315 µg/mL (≈ 799 µM) and a solubility at 24 h ([1]; aqueous with cosolvent or surfactant or cyclodextrin, SBEBCD 200 mg/ml) of 761 µg/mL (≈ 1930 µM). For the same molecule, the solubility at 24 h ([1]; water, ACD 0 mg/ml) was 26 µg/mL (≈ 65.9 µM), the solubility at 24 h ([1]; water, HPBCD 0 mg/ml) was 26 µg/mL (≈ 65.9 µM) and the solubility at 24 h ([1]; water, HPGCD 0 mg/ml) was 26 µg/mL (≈ 65.9 µM). For the same molecule, the solubility at 24 h ([1]; water, MBCD 0 mg/ml) was 26 µg/mL (≈ 65.9 µM), the solubility at 24 h ([1]; water, SBEBCD 0 mg/ml) was 26 µg/mL (≈ 65.9 µM) and the solubility at 24 h ([3]; DI water, water, L-Arginine 0 % w/w in DI water) was 1.15 µg/mL (≈ 2.91 µM). For the same molecule, the solubility at 24 h ([3]; aqueous L-Arginine solution in DI water, aqueous with cosolvent or surfactant or cyclodextrin, L-Arginine 0.15 % w/w in DI water) was 11.1 µg/mL (≈ 28.1 µM), the solubility at 24 h ([3]; aqueous L-Arginine solution in DI water, aqueous with cosolvent or surfactant or cyclodextrin, L-Arginine 0.31 % w/w in DI water) was 15.1 µg/mL (≈ 38.3 µM) and the solubility at 24 h ([3]; aqueous L-Arginine solution in DI water, aqueous with cosolvent or surfactant or cyclodextrin, L-Arginine 0.5 % w/w in DI water) was 25.3 µg/mL (≈ 64.2 µM). For the same molecule, the solubility at 24 h ([3]; aqueous L-Arginine solution in DI water, aqueous with cosolvent or surfactant or cyclodextrin, L-Arginine 0.63 % w/w in DI water) was 34.2 µg/mL (≈ 86.7 µM), the solubility at 24 h ([3]; aqueous L-Arginine solution in DI water, aqueous with cosolvent or surfactant or cyclodextrin, L-Arginine 1.25 % w/w in DI water) was 46.8 µg/mL (≈ 119 µM) and the solubility at 24 h ([3]; aqueous L-Arginine solution in DI water, aqueous with cosolvent or surfactant or cyclodextrin, L-Arginine 2.5 % w/w in DI water) was 85.8 µg/mL (≈ 218 µM).

Cc1ccccc1COc1ccc(Sc2ccoc2C2NC(=O)NC2=O)cc1 (centres unmarked) [IVP, 5-{3-[4-(2-Methyl-benzyloxy)phenylthio]fur-2-yl}imidazolidine-2,4-dione] gave a solubility at 24 h [1, 4] of 15 µg/mL (≈ 38 µM), a solubility at 24 h [1, 5] of 727 µg/mL (≈ 1840 µM) and a solubility at 24 h [1, 6] of 1 µg/mL (≈ 2.54 µM). For the same molecule, the solubility at 24 h [1, 7] was 6270 µg/mL (≈ 15900 µM), the solubility at 24 h [1, 8] was 805 µg/mL (≈ 2040 µM) and the solubility at 24 h ([1]; water, ACD 0 mg/ml) was 64 µg/mL (≈ 162 µM). The solubility at 24 h ([1]; water, HPBCD 0 mg/ml) was 64 µg/mL (≈ 162 µM), the solubility at 24 h ([1]; water, HPGCD 0 mg/ml) was 64 µg/mL (≈ 162 µM) and the solubility at 24 h ([1]; water, MBCD 0 mg/ml) was 64 µg/mL (≈ 162 µM). For the same molecule, the solubility at 24 h ([1]; water, SBEBCD 0 mg/ml) was 64 µg/mL (≈ 162 µM).

With O=C1NC(=O)C(c2occc2Sc2ccc(OCc3cccc(C(F)(F)F)c3)cc2)N1 (centres unmarked) [IVQ, 5-{3-[4-(3-Trifluoromethyl-benzyloxy)phenylthio]fur-2-yl}imidazolidine-2,4-dione] the solubility at 24 h [1, 4] was 111 µg/mL (≈ 248 µM), the solubility at 24 h [1, 5] was 1220 µg/mL (≈ 2710 µM) and the solubility at 24 h [1, 7] was 5780 µg/mL (≈ 12900 µM). For the same molecule, the solubility at 24 h [1, 8] was 641 µg/mL (≈ 1430 µM), the solubility at 24 h ([1]; water, ACD 0 mg/ml) was 138 µg/mL (≈ 308 µM) and the solubility at 24 h ([1]; water, HPBCD 0 mg/ml) was 138 µg/mL (≈ 308 µM). For the same molecule, the solubility at 24 h ([1]; water, HPGCD 0 mg/ml) was 138 µg/mL (≈ 308 µM), the solubility at 24 h ([1]; water, MBCD 0 mg/ml) was 138 µg/mL (≈ 308 µM) and the solubility at 24 h ([1]; water, SBEBCD 0 mg/ml) was 138 µg/mL (≈ 308 µM).

Source: patent publication US11628220B2, “Pharmaceutical composition and methods of uses” (Foresee Pharmaceuticals Co., Ltd., priority 2016, dated 2023)
